Reference: ChEMBL document CHEMBL3400015, “Tertiary amides of Salinomycin: A new group of antibacterial agents against Bacillus anthracis and methicillin-resistant Staphylococcus epidermidis” (Bioorg Med Chem Lett, 2015)
In brackets after ≈: the same amount, converted by molar mass.

Assays:
Bacillus subtilis [1] = test: Genotoxicity in rec-positive Bacillus subtilis H17 at 2 ug/9 mm disc after 24 hrs by disc diffusion method; format: toxicity, organism-based
Bacillus subtilis [2] = test: Genotoxicity in rec-negative Bacillus subtilis M45 at 2 ug/9 mm disc after 24 hrs by disc diffusion method; format: toxicity, organism-based
Bacillus anthracis = test: Antimicrobial activity against Bacillus anthracis 34F2 after 18 hrs by twofold serial broth dilution method; format: functional; settings: 34F2, 18 h

SMILES | diameter of the inhibition zone (DIZ) (Bacillus subtilis [1]) | diameter of the inhibition zone (DIZ) (Bacillus subtilis [2]) | MIC (Bacillus anthracis)
O=[N+]([O-])c1cc[n+]([O-])c2ccccc12 [4-NITROQUINOLINE-1-OXIDE] | 13 mm | 24 mm | 
CC[C@@H](C(=O)[C@@H](C)[C@@H](O)[C@H](C)[C@@H]1O[C@@H]([C@@H](CC)C(=O)[O-])CC[C@@H]1C)[C@H]1O[C@]2(C=C[C@@H](O)[C@]3(CC[C@@](C)([C@H]4CC[C@](O)(CC)[C@H](C)O4)O3)O2)[C@H](C)C[C@@H]1C.[Na+] [SALINOMYCIN SODIUM] |  |  | 1 µg/mL
CC[C@@H](C(=O)[C@@H](C)[C@@H](O)[C@H](C)[C@@H]1O[C@@H]([C@@H](CC)C(=O)O)CC[C@@H]1C)[C@H]1O[C@]2(C=C[C@@H](O)[C@]3(CC[C@@](C)([C@H]4CC[C@](O)(CC)[C@H](C)O4)O3)O2)[C@H](C)C[C@@H]1C [SALINOMYCIN] | 31 mm | 32 mm | 1 µg/mL (≈ 1.33 µM)
CC[C@@]1([C@H]2O[C@H]([C@H]3O[C@@](O)(CO)[C@H](C)C[C@@H]3C)C[C@H]2C)CC[C@H]([C@@]2(C)CC[C@]3(C[C@H](O)[C@@H](C)[C@@H]([C@H](C)[C@H](OC)[C@@H](C)C(=O)[O-])O3)O2)O1.[Na+] [MONENSIN SODIUM] |  |  | 1 µg/mL
